# According to US20260042764A1, “COMPOSITIONS AND METHODS FOR INHIBITION OF KRAS” (TheRas, Inc., priority 2022, published 2026):
# Columns and labels:
# HT1080 cells (NRAS) [1] = experiment: 3D Cell viability assay in HT1080 cells (Biological Example 6); format: cell-based; details: Homo sapiens, HT-1080; HT1080 (NRAS) spheroids, 72 hours
# Method in brief: (§1)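 3D spheroid viability: 1000 cells/well, 48 h spheroid formation (10% FBS, 37 °C, 5% CO2); 9-pt 3-fold dose curve, 0.25% DMSO, 72 h; CTG 3D luminescence; EC50 by 4-parameter log(inhibitor) vs response fit.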
# H358 cells (KRAS G12C) [2] = experiment: Cell-based pERK HTRF assay in H358 cells (Biological Example 5); details: Homo sapiens, NCI-H358, H358 (KRAS G12C) cells
# Method in brief: (§2)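 Inhibition of ERK phosphorylation is measured after cells grown in 10% FBS medium receive test compound for two hours at 37° C across nine threefold-spaced concentrations. Lysates are incubated with HTRF antibody pair for 24 h at 4° C, and EC50 is derived from the 665/620 nm signal ratio.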
# SW1900 cells (KRAS G12D) [3] = experiment: 3D Cell viability assay in SW1900 cells (Biological Example 6); format: cell-based; details: Homo sapiens; SW1990 (text: SW1900, KRAS G12D) spheroids, 72 hours
# Method in brief: as §1
# AsPC-1 cells (KRAS G12D) [4] = experiment: Cell-based pERK HTRF assay in AsPC-1 cells (Biological Example 5); details: Homo sapiens, ASPC1, AsPC-1 (KRAS G12D) cells
# Method in brief: as §2
# KP-2 cells (KRAS G12R) = experiment: Cell-based pERK HTRF assay in KP-2 cells (Biological Example 5); details: KP-2 (KRAS G12R) cells
# Procedure: (§3) Biological Example 5: Cell-based PERK HTRF assay in AsPC-1, SW1900, HPAC, Capan-2, RKN, H358, HCT116, KP-2, H1573, A549, MKN1, and HT1080 cells
# (§4) The inhibition of ERK phosphorylation, as measured using the HTRF Advanced Phospho-ERK 1/2 (Thr202/Tyr204) Detection Assay kit (Perkin Elmer), was used to determine the effectiveness of test compounds in disrupting KRAS-driven protein/effector signaling in cells.
# (§5) On day 1, cells were seeded into 96-well plates at 2.5×10^4 cells/well in 100 μL of complete growth media supplemented with 10% fetal bovine serum (FBS) and incubated at 37° C., in the presence of 5% CO2.
# (§6) On day 2, cells were treated with compounds diluted in DMSO at 0.25% final DMSO concentration. Compounds were dosed in a 9-point concentration curve with three-fold dilution between concentrations. Cells were incubated in the presence of compound for two hours at 37° C. Following this treatment period, cells were harvested by aspirating the media, adding 40 μL of kit-supplied 1x lysis buffer per well, and shaking for 30 minutes at 250 rpm at room temperature.
# (§7) Following cell lysis, samples were homogenized by pipetting up and down twenty times and 16 μL of cell lysate per well was transferred from the 96-well cell culture plate to two wells of a 384-well detection plate. A complete detection buffer was prepared by diluting D2 and Eu Cryptate antibodies 1:20 in kit-provided detection solution, 4 μL of complete detection buffer was then added to each well with lysate. Plates were incubated with gentle rocking for 24 hours at 4° C.
# (§8) Following this incubation period, plates were centrifuged at 500×g for one minute and analyzed on a CLARIOstar plate reader. Data was imported into Microsoft Excel and the signal from the 665 nm channel was divided by the signal from the 620 nm channel. % pERK was calculated as: […]
# (§9) Data was imported to the Prism software package (Graphpad) and EC50 values were calculated using the log (inhibitor) vs, response—variable slopc (Four parameters) model.
# HPAC cells (KRAS G12D) [5] = experiment: 3D Cell viability assay in HPAC cells (Biological Example 6); format: cell-based; details: Homo sapiens, HPAC, 72 h, HPAC (KRAS G12D) spheroids
# Method in brief: as §1
# HCT116 cells (KRAS G13D) = experiment: Cell-based pERK HTRF assay in HCT116 cells (Biological Example 5); details: Homo sapiens, HCT-116
# Procedure: as §3, §4, §5, §6, §7, §8, §9
# SW1900 cells (KRAS G12D) [6] = experiment: Cell-based pERK HTRF assay in SW1900 cells (Biological Example 5); details: Homo sapiens, SW1990, SW1990 cells (text: SW1900, KRAS G12D)
# Method in brief: as §2
# HPAC cells (KRAS G12D) [7] = experiment: Cell-based pERK HTRF assay in HPAC cells (Biological Example 5); details: Homo sapiens, HPAC
# Method in brief: as §2
# [8] = tested on: Capan-2 cells (KRAS G12V); experiment: Cell-based pERK HTRF assay in Capan-2 cells (Biological Example 5); details: Homo sapiens, Capan-2, Capan-2 (KRAS G12V) cells
# Method in brief: as §2
# H358 cells (KRAS G12C) [9] = experiment: 3D Cell viability assay in H358 cells (Biological Example 6); format: cell-based; details: Homo sapiens, NCI-H358; H358 (KRAS G12C) spheroids, 72 hours
# Method in brief: as §1
# HT1080 cells (NRAS) [10] = experiment: Cell-based pERK HTRF assay in HT1080 cells (Biological Example 5); details: Homo sapiens, HT-1080
# Method in brief: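 A two-hour compound treatment (0.25% DMSO) of cells seeded the previous day preceded lysis and HTRF phospho-ERK1/2 detection. EC50 values were fitted by variable-slope four-parameter regression.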
# AsPC-1 cells (KRAS G12D) [11] = experiment: 3D Cell viability assay in AsPC-1 cells (Biological Example 6); format: cell-based; details: Homo sapiens, ASPC1; AsPC-1 (KRAS G12D) spheroids, 72 hours
# Method in brief: as §1
# [12] = tested on: MKN1 cells (KRAS amplification); experiment: 3D Cell viability assay in MKN1 cells (Biological Example 6); format: cell-based; details: Homo sapiens, MKN-1; MKN (MKN1, KRAS amplification) spheroids, 72 hours
# Method in brief: as §1
# [13] = tested on: Capan-2 cells (KRAS G12V); experiment: 3D Cell viability assay in Capan-2 cells (Biological Example 6); format: cell-based; details: Homo sapiens; Capan-2 (KRAS G12V) spheroids, 72 hours
# Method in brief: as §1
# H1573 cells (KRAS G12A) = experiment: Cell-based pERK HTRF assay in H1573 cells (Biological Example 5); details: Homo sapiens, NCI-H1573
# Procedure: as §3, §4, §5, §6, §7, §8, §9
# [14] = tested on: MKN1 cells (KRAS amplification); experiment: Cell-based pERK HTRF assay in MKN1 cells (Biological Example 5); details: Homo sapiens, MKN-1, MKN cells (MKN1, KRAS amplification)
# Method in brief: as §2
# RKN cells (KRAS G12V) = experiment: Cell-based pERK HTRF assay in RKN cells (Biological Example 5)
# Method in brief: as §2
SMILES,IC50 (HT1080 cells (NRAS) [1]) [nM],IC50 (H358 cells (KRAS G12C) [2]) [nM],IC50 (SW1900 cells (KRAS G12D) [3]) [nM],IC50 (AsPC-1 cells (KRAS G12D) [4]) [nM],IC50 (KP-2 cells (KRAS G12R)) [nM],IC50 (HPAC cells (KRAS G12D) [5]) [nM],IC50 (HCT116 cells (KRAS G13D)) [nM],IC50 (SW1900 cells (KRAS G12D) [6]) [nM],IC50 (HPAC cells (KRAS G12D) [7]) [nM],IC50 [8] [nM],IC50 (H358 cells (KRAS G12C) [9]) [nM],IC50 (HT1080 cells (NRAS) [10]) [nM],IC50 (AsPC-1 cells (KRAS G12D) [11]) [nM],IC50 [12] [nM],IC50 [13] [nM],IC50 (H1573 cells (KRAS G12A)) [nM],IC50 [14] [nM],IC50 (RKN cells (KRAS G12V)) [nM]
"CCC(=O)N1CC[C@@H](N(CC)c2nc(OC[C@@]34CCCN3C[C@H](F)C4)nc3c(F)c(-c4ccc(F)c5sc(N)c(C#N)c45)c(C(F)(F)F)cc23)[C@H]1C (atropisomer, axis not shown) [Compound 523]",> 1000,≤ 100,≤ 100,100 to 1000,≤ 100,> 1000,≤ 100,≤ 100,≤ 100,≤ 100,≤ 100,> 1000,100 to 1000,≤ 100,≤ 100,≤ 100,≤ 100,
"CCN(c1nc(OC[C@@]23CCCN2C[C@H](F)C3)nc2c(F)c(-c3ccc(F)c4sc(N)c(C#N)c34)c(C(F)(F)F)cc12)[C@@H]1CCN(C(=O)C2CC2)[C@@H]1C (atropisomer, axis not shown) [Compound 524]",> 1000,≤ 100,≤ 100,100 to 1000,≤ 100,> 1000,≤ 100,≤ 100,≤ 100,≤ 100,≤ 100,> 1000,100 to 1000,≤ 100,≤ 100,≤ 100,≤ 100,
"CCN(c1nc(OC[C@@]23CCCN2C[C@H](F)C3)nc2c(F)c(-c3ccc(F)c4sc(N)c(C#N)c34)c(C(F)(F)F)cc12)[C@H]1CCN(C(=O)N(C)C)C1 (atropisomer, axis not shown) [Compound 540, (3S)-3-[[7-(2-amino-3-cyano-7-fluoro-benzothiophen-4-yl)-8-fluoro-2-[[(2R,8S)-2-fluoro-1,2,3,5,6,7-hexahydropyrrolizin-8-yl]methoxy]-6-(trifluoromethyl)quinazolin-4-yl]-ethyl-amino]-N,N-dimethyl-pyrrolidine-1-carboxamide]",> 1000,≤ 100,≤ 100,100 to 1000,≤ 100,100 to 1000,≤ 100,≤ 100,≤ 100,≤ 100,≤ 100,> 1000,100 to 1000,≤ 100,≤ 100,≤ 100,≤ 100,
"CCN(c1nc(OC[C@@]23CCCN2C[C@H](F)C3)nc2c(F)c(-c3ccc(F)c4sc(N)c(C#N)c34)c(C(F)(F)F)cc12)[C@H]1CCN(C(=O)OC)C1 (atropisomer, axis not shown) [Compound 541, methyl(3S)-3-[[7-(2-amino-3-cyano-7-fluoro-benzothiophen-4-yl)-8-fluoro-2-[[(2R,8S)-2-fluoro-1,2,3,5,6,7-hexahydropyrrolizin-8-yl]methoxy]-6-(trifluoromethyl)quinazolin-4-yl]-ethyl-amino]pyrrolidine-1-carboxylate]",> 1000,≤ 100,≤ 100,≤ 100,100 to 1000,≤ 100,≤ 100,≤ 100,≤ 100,≤ 100,≤ 100,> 1000,≤ 100,≤ 100,≤ 100,≤ 100,≤ 100,≤ 100
"CCN(c1nc(OC[C@@]23CCCN2C[C@H](F)C3)nc2c(F)c(-c3ccc(F)c4sc(N)c(C#N)c34)c(C(F)(F)F)cc12)[C@H]1C[C@H]2CN(C)C(=O)N2C1 (atropisomer, axis not shown; (aS)) [Compound 543, 2-amino-4-((S)-4-(ethyl((6S,7aS)-2-methyl-3-oxohexahydro-1H-pyrrolo[1,2-c]imidazol-6-yl)amino)-8-fluoro-2-(((2R,7aS)-2-fluorotetrahydro-1H-pyrrolizin-7a(5H)-yl)methoxy)-6-(trifluoromethyl)quinazolin-7-yl)-7-fluorobenzo[b]thiophene-3-carbonitrile]",,≤ 100,≤ 100,≤ 100,,≤ 100,,≤ 100,≤ 100,≤ 100,≤ 100,,≤ 100,≤ 100,≤ 100,,≤ 100,≤ 100
Cc1c(C(=O)N(C)C)nn2c1CN(c1nc(OC[C@@]34CCCN3C[C@H](F)C4)nc3c(F)c(-c4ccc(F)c5sc(N)c(C#N)c45)c(C(F)(F)F)cc13)CC2 [Compound 501],,≤ 100,≤ 100,≤ 100,100 to 1000,100 to 1000,100 to 1000,≤ 100,≤ 100,≤ 100,≤ 100,,≤ 100,≤ 100,≤ 100,100 to 1000,≤ 100,≤ 100
